Where “and” joins values, the source holds several entries; their conditions need not be identical. Equal values may be shown once.
Assays:
BSA = target: T1, BSA (Bos taurus, UniProt P02769); test: Förster's theory-based FRET computation, donor (BSA)–acceptor (compound); assay type: binding, bovine; set-up: kET (rate of exchange resonance energy transfer): unit not given here
T1 construct: purchased Sigma Aldrich
Text: As per Förster’s theory, the critical distance of the donor-acceptor system can be determined with the supporting of the FRET approach to assess the binding affinity between BSA-substance systems. […]
excitation and emission directions, respectively. Also, the alteration in absorbance (OD) at the excitation and fluorescence wavelengths, respectively, is sometimes referred to as A ex and […]
F = 1+KSV [Q] = 1+ Kq τ0 (S13)
Where [Q] is represented as the sample concentration (quencher), the emission intensities F 0 and F are those in the […] of the quencher, respectively.
F ) = log Kass + nlog [Q] (S14)
KEB[EB] = Kapp[compound] (S15)
∆F = (F 0–F), Equation (16) was utilized to examine the Lineweaver –Burk binding constant (KLB) from the linear regression plot of 1/(F0–F) vs 1/[Q]. […]
γ =(F0–F)/F0, CF is denoted as the concentration of sample alone, the linear regression plot of (γ/CF) vs γ was employed to support equation (17), which was used to determine the values of KSA and n, respectively.
2.2.6. FRET calculation by Förster’s theory
Calculating FRET (Fluorescence Resonance Energy Transfer) is a crucial approach in determining the critical distance (r) between donor (BSA) and acceptor (test compound) molecules, in which the binding affinity between the BSA-complex systems could be evalued according to Förster’s theory. The overlap of the emission spectrum of the donor (BSA) and the absorption spectrum of the acceptor (compound) describes that the acceptor (compound) group may get excited as a result of the excited donor's (BSA) energy being lost to the ground […]
The relative orientation factor of the dipoles (K 2) is associated with the geometry of the BSA and complex of the dipoles, the value for random orientation (K 2 = 2/3) like in a fluid […]
F(λ) is represented as the corrected or the normalized emission intensity(OD) of the bovine serum albumin in the range of λ–(λ+∆λ), ε(λ) is denoted as the molar extinction coefficient of […]
The radiative, non-radiative decay and quenching rate constants are denoted as k r, knr and kq, respectively, and the concentration of complex (quenching species) is described as [Q].

[1] = DPPH radical scavenging assay; assay type: biochemical; conditions: 517 nm
CT-DNA [2] = test: DNA binding affinity by viscometric (hydrodynamic) titration; set-up: species or system calf; conditions: for Relative Specific Viscosity (η/η0)^1/3: DNA 100 µM
Procedure: The hydrodynamic titrations were carried out for all substances along with ethidium bromide (control) at 20, 40, 60, 80, 100 µM concentrations. In the Ostwald viscometer, these substances were also separately treated with the deoxyribonucleic acid solution (100 µM).
2.2.4. Viscometry-based titration for investigation of DNA binding
The Viscometry-based titration measurements were further supportive and delivered data about the binding modes between test compound and DNA base pairs. Nevertheless, it does not deliver definite confirmation for the exact mode of interactions. The experiment performed for all test compounds and ethidium bromide (control) at various concentrations 20, 40, 60, 80, 100 µM and each compound mixed with the CT-DNA solution (100 µM) in the Ostwald viscometer. With an accuracy of 0.01 seconds, a digital stopwatch was used to measure the average flow time. Due to the enhancement of the DNA's overall contour length during the separation of base pairs at intercalation sites, the classical intercalative mode […]
Generally, the compounds may result in less positive/negative or no viscosity change if they bind with DNA base pairs via […]
major or minor grooves [ 26]. […]
compounds via intercalation.

Shigella flexneri = test: Agar disc diffusion antibacterial test
CT-DNA [3] = test: DNA binding by UV–visible absorption titration; set-up: species or system calf
Procedure: The DNA-binding experiment was performed by a UV–visible spectrophotometer by raising the DNA concentration from zero to 50 μM to the given concentration of all samples (50 μM) in Tris-HCl buffer with a pH of 7.4 at 25 °C [21, 22].
2.2.2. Evaluation of DNA-binding characteristics
By increasing the concentration of DNA (0 –50 μM), electronic absorption titrations were performed at the fixed concentration (50 μM) of all test compounds in aqueous media at room temperature. The Tris-HCl buffer (5mM Tris-HCl /50 mM NaCl, pH = 7.2) solution was guaranteed to be pure and contain sufficient amounts of DNA. Using the molar extinction coefficient (6600 M −1 cm−1) at 260 nm, it was also possible to measure the DNA concentration per nucleotide and polynucleotide, denoting that the DNA was sufficiently free of protein by the ratio of absorbance at 260 and 280 nm of roughly 1.8 –1.9 [21, 22]. When raising the concentration of DNA in compound solution, up to the point of completely binding, the decrease in absorbance intensity was carefully observed. […]
ɛa is represented as the apparent absorption coefficient value for the MLCT band at a specific concentration of deoxyribonucleic acid and evaluated from Abs/[complex]. ɛ f and ɛb are the absorption coefficients for the chemical substance alone and completely interacted with deoxyribonucleic acid, respectively. ∆Amax = (Amax–A0); ∆A=(Ax–A0), where A0, Ax and Amax are denoted as the optical density of chemical substances alone, the middle form, and the completely interacted form with deoxyribonucleic acid, respectively.

Aspergillus niger = test: Agar disc diffusion antifungal test
[4] = Superoxide scavenging assay; assay type: biochemical; conditions: 590 nm
[5] = compound 50 μM, DNA 0–50 μM, Tris-HCl buffer pH 7.4, 25 °C
[6] = intrinsic DNA binding constant, UV–Vis titration

T1 sequence (P02769 25-607): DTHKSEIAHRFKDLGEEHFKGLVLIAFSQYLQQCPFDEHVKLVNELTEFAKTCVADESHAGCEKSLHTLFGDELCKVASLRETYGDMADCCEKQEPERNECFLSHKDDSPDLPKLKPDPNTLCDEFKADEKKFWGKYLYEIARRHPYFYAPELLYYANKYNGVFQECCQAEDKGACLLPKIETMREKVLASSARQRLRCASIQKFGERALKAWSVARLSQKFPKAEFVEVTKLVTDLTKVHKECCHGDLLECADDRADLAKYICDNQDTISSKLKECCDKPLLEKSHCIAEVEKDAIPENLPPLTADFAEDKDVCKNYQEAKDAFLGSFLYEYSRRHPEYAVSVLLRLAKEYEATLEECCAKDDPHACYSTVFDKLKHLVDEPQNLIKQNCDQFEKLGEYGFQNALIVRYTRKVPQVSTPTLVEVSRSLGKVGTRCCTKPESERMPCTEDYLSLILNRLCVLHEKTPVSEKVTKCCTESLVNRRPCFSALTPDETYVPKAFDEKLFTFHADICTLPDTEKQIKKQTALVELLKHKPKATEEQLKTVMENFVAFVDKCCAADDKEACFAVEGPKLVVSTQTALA

## Oc1ccccc1N=Cc1ccc(N2CCOCC2)cc1 [(HL), 2-(4-morpholinobenzylideneamino)phenol]
BSA; BSA emission vs compound absorption
  J (normalized spectral overlap integral): 0.8215 × 10^−14 LM^−1cm^3
BSA; BSA–compound
  kET (rate of exchange resonance energy transfer): 5.8443
  r (donor-acceptor separation): 2.6685 nm
BSA; E=1−F/F0
  E (efficiency of energy transfer): 0.3462
BSA; free BSA = 6573.60 M^−1 cm^−1
  B (average brightness of the complex-BSA system): 5339.79 M⁻¹ cm⁻¹
BSA; n = 1.36, Φ = 0.15, K^2 = 2/3
  R0 (critical distance, 50% energy transfer): 2.4400 nm
[1]; 40 µM
  % Inhibition, DPPH: 09.45%
[1]; 80 µM
  % Inhibition, DPPH: 15.21%
[1]; 120 µM
  % Inhibition, DPPH: 26.36%
[1]; 160 µM
  % Inhibition, DPPH: 34.56%
[1]; 200 µM
  % Inhibition, DPPH: 39.41%
[1]; 240 µM
  % Inhibition, DPPH: 52.45%
CT-DNA [2]; R = [Complex]/[DNA] = 0.2
  Relative Specific Viscosity (η/η0)^1/3: 0.61
CT-DNA [2]; R = [Complex]/[DNA] = 0.4
  Relative Specific Viscosity (η/η0)^1/3: 0.67
CT-DNA [2]; R = [Complex]/[DNA] = 0.6
  Relative Specific Viscosity (η/η0)^1/3: 0.75
CT-DNA [2]; R = [Complex]/[DNA] = 0.8
  Relative Specific Viscosity (η/η0)^1/3: 0.85
CT-DNA [2]; R = [Complex]/[DNA] = 1.0
  Relative Specific Viscosity (η/η0)^1/3: 1.01
CT-DNA [2]; linear plot, R 0.2–1.0
  Slope of (η/η0)^1/3 vs [Compound]/[DNA]: 0.462 and 0.4616
Shigella flexneri; E, (-) Shigella flexneri, (T–C)/T × 100
  Inhibition %: 57%
Shigella flexneri; Shigella flexneri, read-out: diameter of clear zone inhibition
  zone of inhibition at 100 µM: 14 mm
CT-DNA [3]; [5]
  % H (hypochromism): 46.88%
  Δλ nm (red shift on binding to CT-DNA): 4 nm
CT-DNA [3]; [6]
  Kb, BH–I (Benesi–Hildebrand method I): 1.0545 (1.0545) × 10^4 M^−1
  Kb, BH–II (Benesi–Hildebrand method II): 1.0545 (1.0545) × 10^4 M^−1
  Kb, SK–I (Sakthi–Krause method I): 8775 M⁻¹
  Kb, SK–II (Sakthi–Krause method II): 15618 M⁻¹
  Kb, WS–I (Wolfe-Shimmer method I): 15169 M⁻¹
  Kb, WS–II (Wolfe-Shimmer method II): 15480 M⁻¹
CT-DNA [3]; −RT ln Kb, T = 298 K
  ΔGb°, BH–I: −22.95 (−22.95) kJmol^−1
  ΔGb°, BH–II: −22.95 (−22.95) kJmol^−1
  ΔGb°, SK–I: −22.50 kJmol^−1
  ΔGb°, SK–II: −23.92 kJmol^−1
  ΔGb°, WS–I: −23.85 kJmol^−1
  ΔGb°, WS–II: −23.90 kJmol^−1
Aspergillus niger; H, (T–C)/T × 100
  Inhibition %: 40%
Aspergillus niger; read-out: diameter of clear zone inhibition
  zone of inhibition at 100 µM: 10 mm
[4]; 40 µM
  % Inhibition, superoxide: 05.23%
[4]; 80 µM
  % Inhibition, superoxide: 10.74%
[4]; 120 µM
  % Inhibition, superoxide: 18.85%
[4]; 160 µM
  % Inhibition, superoxide: 33.55%
[4]; 200 µM
  % Inhibition, superoxide: 40.91%
[4]; 240 µM
  % Inhibition, superoxide: 50.42%

— paper PMC9775322, “An Integrated Analysis of Mechanistic Insights into Biomolecular Interactions and Molecular Dynamics of Bio-Inspired Cu(II) and Zn(II) Complexes towards DNA/BSA/SARS-CoV-2 3CL^pro by Molecular Docking-Based Virtual Screening and FRET Detection” (Biomolecules, 2022)
